{
  "source": "patent US9663514B2",
  "about": "(Takeda Pharmaceutical Company Limited, priority 2011, dated 2017)",
  "data": [
    {"biological_target": "T1, SYK (Homo sapiens, UniProt P43405)", "T1 construct": "The SYK kinase domain (residues 356-635) is amplified via PCR; made in house; host or cells: Sf9 insect cells (baculovirus, pFastBac1)", "experiment": "SYK inhibition: in vitro assay of SYK-mediated phosphorylation of FAM-labeled substrate (Caliper LC-3000)", "assay_type": "biochemical", "conditions": "SYK kinase domain (residues 356-635); 2.4 nM SYK and 45 μM ATP, 3 μM 5FAM-KKKKEEIYFFFG-NH2, RT 60 min, pH 7.3; pIC50 = −log(IC50), IC50 molar", "protocol": "The ability of compounds to inhibit SYK activity may be assessed using a variety of methods, including in vitro and in vivo assays. The following in vitro assay measures a test compound's ability to inhibit SYK-mediated phosphorylation of a FAM-labeled SYK-specific substrate (5FAM-KKKKEEIYFFFG-NH2).\nSYK protein is prepared from cDNA encoding human spleen tyrosine kinase and is expressed in insect cells using a baculovirus expression vector. The cDNA (IMAGE: 3542895) is purchased from Open Biosystems. The SYK kinase domain (residues 356-635) is amplified via PCR and cloned into plasmid pFastBacl (Invitrogen) at BamHI/XbaI sites. Recombinant plasmid encoding Met-Ala-Lys-SYK(356-635)-HHHHHH is sequenced and transformed into E. coli DH10Bac strain. The recombinant bacmid DNA is isolated and transfected into Sf9 insect cells. Recombinant virus is harvested 72 h after transfection. High titer viral stock is prepared by infecting Sf9 cells at a multiplicity of infection (MOI) of approximately 0.01. A suspension of Sf9 cells (10 L) is infected with recombinant virus (MOI=5) and is incubated in a Wave Bioreactor (GE-Healthcare) for 48 h. The cells are harvested and stored at −80° C.\nTo purify the expressed protein, the frozen Sf9 cells (10 L) are broken into small (<1 cm) particles and suspended in a lysis buffer (300 mL) containing 20 mM Tris (pH 7.6), 0.25 mM TCEP, 100 mM NaCl, 5% glycerol and a protease inhibitor. The suspension is stirred at RT until completely thawed, lysed an additional 2-4 min on a rotary blade homogenizer, and then centrifuged at 4200 g for 1 h. Following centrifugation, the supernatant is poured through cheese cloth and combined with a nickel chelating resin (Probond Resin™, Invitrogen) which is pre-equilibrated in a wash buffer containing 10 mM Tris (pH 7.6), 0.25 mM TCEP, 300 mM NaCl, 5% glycerol, and 20 mM imidazole. The mixture is agitated for 3 h in a cold room and then centrifuged at 900 g for 10 min. The resin is dispersed in wash buffer (50 mL), centrifuged for 10 min at 900 g, re-dispersed in a small amount of wash buffer (5 mL), and then pour into a disposable Poly-Prep chromatography column, through which wash buffer is passed by gravity until no protein is observed in coomassie buffer (about 120 mL of wash buffer). An elution buffer (30 mL) containing 10 mM HEPES (pH 7.4), 150 mM NaCl, 10% glycerol, 5 mM DTT, and 400 mM imidazole is used to elute the SYK protein from the resin. The eluate is concentrated (5 mL) and further purified on a Superdex 200 column (1.2 mL/min for 160 min, 10 mM HEPES (pH 7.4), 10 mM NaCl, 10 mM MgCl, 0.1 mM EDTA, and 0.25 mM TCEP). The chromatographed fractions are run on SDS-PAGE and the requisite fractions are pooled and concentrated. Final delivery buffer is 10 mM HEPES (pH 7.4), 10 mM Methione, 150 mM NaCl, 10% glycerol, 5 mM DTT.\nSYK inhibition is determined using a black 384 well plate format in buffer containing 50 mM HEPES, 10 mM NaCl, 10 mM MgCl2, 0.2 mM EDTA, 0.01% EDA (Brij®35), 1 mM DTT, and 0.1 mg/ml BSA at pH 7.3. Each test compound is prepared in DMSO using 2-fold serial dilutions for 11 data points, which are added to the buffer so that each dilution contains 3% DMSO. To each well is added 2 μL of 3 μM SFAM-KKKKEEIYFFFG-NH2 (in buffer), 2 μL of diluted test compound (3% DMSO in buffer), and 2 μL of 2.4 nM SYK and 45 μM ATP (in buffer). The reaction mixture is incubated at RT for 60 min, and quenched by adding 50 mM Hepes, 30 mM EDTA, 0.1% Triton X-100 (pH 7.3). To quantify the fluorescent-labeled substrate and product following reaction, the test plate is loaded on a Caliper LC-3000, which measures percent of conversion by microfluidic-based separation. Corresponding IC50 values are calculated by non-linear curve fitting of the compound concentrations and percent of inhibition to the standard IC50 equation and reported as pIC50, i.e., −log(IC50), where IC50 is molar concentration.", "units": {"IC50": "nM"}, "values": [
      {"smiles": "Cc1ccn2ncc(-c3nc(N[C@@H]4CCCC[C@@H]4N)c(F)c4c3C(=O)N[C@@H]4C)c2c1", "note": "[Example 54, (R)-6-(((1R,2S)-2-Aminocyclohexyl)amino)-7-fluoro-1-methyl-4-(5-methylpyrazolo[1,5-a]pyridin-3-yl)-1H-pyrrolo[3,4-c]pyridin-3(2H)-one]", "IC50": 50.1},
      {"smiles": "Cc1ccn2ncc(-c3nc(N[C@@H]4CCCC[C@@H]4N)c(F)c4c3C(=O)N[C@H]4C)c2c1", "note": "[Example 55, (S)-6-(((1R,2S)-2-Aminocyclohexyl)amino)-7-fluoro-1-methyl-4-(5-methylpyrazolo[1,5-a]pyridin-3-yl)-1H-pyrrolo[3,4-c]pyridin-3(2H)-one]", "IC50": 251},
      {"smiles": "N[C@H]1CCCC[C@H]1Nc1nc(CCc2ccccc2)c2c(c1F)CNC2=O", "note": "[Example 47, 6-((1R,2S)-2-Aminocyclohexylamino)-7-fluoro-4-phenethyl-1H-pyrrolo[3,4-c]pyridin-3 (2H)-one]", "IC50": 100},
      {"smiles": "N[C@H]1COCC[C@H]1Nc1nc(-c2cc3ncccc3s2)c2c(c1F)CNC2=O", "note": "[Example 25, 6-((3R,4R)-3-Aminotetrahydro-2H-pyran-4-ylamino)-7-fluoro-4-(thieno[3,2-b]pyridin-2-yl)-1H-pyrrolo[3,4-c]pyridin-3(2H)-one]", "IC50": 12.6},
      {"smiles": "Cc1cc(-c2nc(N[C@@H]3CCOC[C@@H]3N)c(F)c3c2C(=O)N[C@H]3C)sn1", "note": "[Example 57, (S)-6-(((3R,4R)-3-Aminotetrahydro-2H-pyran-4-yl)amino)-7-fluoro-1-methyl-4-(3-methylisothiazol-5-yl)-1H-pyrrolo[3,4-c]pyridin-3(2H)-one]", "IC50": 100},
      {"smiles": "CCn1cc(-c2nc(N[C@@H]3CCOC[C@@H]3N)c(F)c3c2C(=O)NC3)cn1", "note": "[Example 38, 6-((3R,4R)-3-Aminotetrahydro-2H-pyran-4-ylamino)-4-(1-ethyl-1H-pyrazol-4-yl)-7-fluoro-1H-pyrrolo[3,4-c]pyridin-3(2H)-one]", "IC50": 20},
      {"smiles": "Cc1cc(-c2nc(N[C@@H]3CCOC[C@@H]3N)c(F)c3c2C(=O)N[C@@H]3C)sn1", "note": "[Example 56, (R)-6-(((3R,4R)-3-Aminotetrahydro-2H-pyran-4-yl)amino)-7-fluoro-1-methyl-4-(3-methylisothiazol-5-yl)-1H-pyrrolo[3,4-c]pyridin-3(2H)-one]", "IC50": 15.8},
      {"smiles": "N[C@H]1COCC[C@H]1Nc1nc(-c2cc3cc(F)ccc3s2)c2c(c1F)CNC2=O", "note": "[Example 7, 6-((3R,4R)-3-Aminotetrahydro-2H-pyran-4-ylamino)-7-fluoro-4-(5-fluorobenzo[b]thiophen-2-yl)-1H-pyrrolo[3,4-c]pyridin-3(2H)-one]", "IC50": 0.2},
      {"smiles": "N[C@H]1COCC[C@H]1Nc1nc(-c2cc(C(F)F)ns2)c2c(c1F)CNC2=O", "note": "[Example 1, 6-((3R,4R)-3-Aminotetrahydro-2H-pyran-4-ylamino)-4-(3-(difluoromethyl)isothiazol-5-yl)-7-fluoro-1H-pyrrolo[3,4-c]pyridin-3(2H)-one]", "IC50": 50.1},
      {"smiles": "Cc1ccn2ncc(-c3nc(N[C@@H]4CCOC[C@@H]4N)c(F)c4c3C(=O)NC4)c2c1", "note": "[Example 58, 6-(((3R,4R)-3-Aminotetrahydro-2H-pyran-4-yl)amino)-7-fluoro-4-(5-methylpyrazolo[1,5-a]pyridin-3-yl)-1H-pyrrolo[3,4-c]pyridin-3 (2H)-one]", "IC50": 12.6},
      {"smiles": "N[C@H]1COCC[C@H]1Nc1nc(-c2cc3c(F)cccc3s2)c2c(c1F)CNC2=O", "note": "[Example 23, 6-((3R,4R)-3-Aminotetrahydro-2H-pyran-4-ylamino)-7-fluoro-4-(4-fluorobenzo[b]thiophen-2-yl)-1H-pyrrolo[3,4-c]pyridin-3(2H)-one]", "IC50": 0.398},
      {"smiles": "N[C@H]1CCCC[C@H]1Nc1nc(-c2ccns2)c2c(c1F)CNC2=O", "note": "[Example 5, 6-((1R,2S)-2-Aminocyclohexylamino)-7-fluoro-4-(isothiazol-5-yl)-1H-pyrrolo[3,4-c]pyridin-3 (2H)-one]", "IC50": 3.98},
      {"smiles": "N[C@H]1CCCC[C@H]1Nc1nc(-c2cc3ccncc3s2)c2c(c1F)CNC2=O", "note": "[Example 15, 6-((1R,2S)-2-Aminocyclohexylamino)-7-fluoro-4-(thieno[2,3-c]pyridin-2-yl)-1H-pyrrolo[3,4-c]pyridin-3(2H)-one]", "IC50": 0.158},
      {"smiles": "N[C@H]1COCC[C@H]1Nc1nc(/C=C/c2ccc(Cl)cc2)c2c(c1F)CNC2=O", "note": "[Example 51]", "IC50": 2},
      {"smiles": "N[C@H]1COCC[C@H]1Nc1nc(-c2cc3cccnc3s2)c2c(c1F)CNC2=O", "note": "[Example 13, 6-((3R,4R)-3-Aminotetrahydro-2H-pyran-4-ylamino)-7-fluoro-4-(thieno[2,3-b]pyridin-2-yl)-1H-pyrrolo[3,4-c]pyridin-3(2H)-one]", "IC50": 0.251},
      {"smiles": "Cc1nn(C)c2cc(-c3nc(N[C@@H]4CCCC[C@@H]4N)c(F)c4c3C(=O)NC4)sc12", "note": "[Example 31, 6-((1R,2S)-2-Aminocyclohexylamino)-4-(1,3-dimethyl-1H-thieno[3,2-c]pyrazol-5-yl)-7-fluoro-1H-pyrrolo[3,4-c]pyridin-3(2H)-one]", "IC50": 0.126},
      {"smiles": "N[C@H]1CCCC[C@H]1Nc1nc(-c2cc3n(c2)CCOC3)c2c(c1F)CNC2=O", "note": "[Example 35, 6-((1R,2S)-2-Aminocyclohexylamino)-4-(3,4-dihydro-1H-pyrrolo[2,1-c][1,4]oxazin-7-yl)-7-fluoro-1H-pyrrolo[3,4-c]pyridin-3(2H)-one]", "IC50": 10},
      {"smiles": "CCc1cc(-c2nc(N[C@@H]3CCOC[C@@H]3N)c(F)c3c2C(=O)NC3)sn1", "note": "[Example 2, 6-((3R,4R)-3-Aminotetrahydro-2H-pyran-4-ylamino)-4-(3-ethylisothiazol-5-yl)-7-fluoro-1H-pyrrolo[3,4-c]pyridin-3(2H)-one]", "IC50": 3.98},
      {"smiles": "N[C@H]1CCCC[C@H]1Nc1nc(-c2cc3c(F)cccc3s2)c2c(c1F)CNC2=O", "note": "[Example 24, 6-((1R,2S)-2-Aminocyclohexylamino)-7-fluoro-4-(4-fluorobenzo[b]thiophen-2-yl)-1H-pyrrolo[3,4-c]pyridin-3(2H)-one]", "IC50": 0.398},
      {"smiles": "N[C@H]1COCC[C@H]1Nc1nc(-c2cc(C3CC3)ns2)c2c(c1F)CNC2=O", "note": "[Example 6, 6-((3R,4R)-3-Aminotetrahydro-2H-pyran-4-ylamino)-4-(3-cyclopropylisothiazol-5-yl)-7-fluoro-1H-pyrrolo[3,4-c]pyridin-3(2H)-one]", "IC50": 0.794},
      {"smiles": "N[C@H]1COCC[C@H]1Nc1nc(-c2cc3cc(C(=O)O)ccn3c2)c2c(c1F)CNC2=O", "note": "[Example 40, 2-(6-((3R,4R)-3-Aminotetrahydro-2H-pyran-4-ylamino)-7-fluoro-3-oxo-2,3-dihydro-1H-pyrrolo[3,4-c]pyridin-4-yl)indolizine-7-carboxylic acid]", "IC50": 0.2},
      {"smiles": "Cc1c2sc(-c3nc(N[C@@H]4CCCC[C@@H]4N)c(F)c4c3C(=O)NC4)cc2nn1C", "note": "[Example 33, 6-((1R,2S)-2-Aminocyclohexylamino)-4-(2,3-dimethyl-2H-thieno[3,2-c]pyrazol-5-yl)-7-fluoro-1H-pyrrolo[3,4-c]pyridin-3(2H)-one]", "IC50": 0.631},
      {"smiles": "N[C@H]1COCC[C@H]1Nc1nc(-c2ccc(F)s2)c2c(c1F)CNC2=O", "note": "[Example 12, 6-((3R,4R)-3-Aminotetrahydro-2H-pyran-4-ylamino)-7-fluoro-4-(5-fluorothiophen-2-yl)-1H-pyrrolo[3,4-c]pyridin-3(2H)-one]", "IC50": 12.6}
    ]}
  ]
}
